Structures are written as SMILES.

The test system of series [1] is systolic blood pressure. Put plainly: systolic blood pressure (SBP) by tail plethysmography, rats on 30% fat / sucrose diet. The class given is in vivo, Sprague-Dawley Rats. The note with it: end of eight weeks. The source says:
(§1) A known effect of ACE inhibitors is a reduction in elevated systolic blood pressure. To test this, the following protocol was employed: Sprague-Dawley Rats (SD), approximately 8 weeks of age were obtained. Six groups of eight male SD received the same standard rat chow manufactured to specifications. The special diets derived 30% of calories from fats (one half from lard and one half from corn oil), 50% from carbohydrates, and 20% from proteins. Twenty percent of dietary calories was derived from sucrose and the preponderance of the remaining carbohydrate calories was derived from dextrin. During weekdays (M-F), each group was gavaged twice daily with a solution containing a commercial source of potassium hydroxycitrate (KHCA), a commercial source of potassium-calcium hydroxycitrate (KCaHCA), or a pre-commercial non-salt source of potassium-magnesium hydroxycitrate (KMgHCA, listed as KMgHCA L-Low, M-Intermediate or H-High depending upon the dose). Over the weekends (S-S), a similar quantity of the weekday daily dose was added to twenty grams of food, that is, an amount of food estimated to be close to the daily intake of the animals. At initiation of study and four weeks, and eight weeks later, bloods were drawn from all SD for routine blood chemistries. Body weight (BW) was measured weekly and systolic blood pressure (SBP) was measured every two weeks.
The HCA dosages in the arms varied. The dosage used in the KHCA arm was extrapolated from the recommended 1,500 mg HCA per day for humans consuming a normal diet (i.e., ≧30% calories derived from fats) advocated by a commercial seller of KHCA and claimed to have produced acceptable clinical results. The approximate equivalent for the rat model is 35.4 mg HCA per day, which we increased to 38.4 mg HCA per day for convenience in employing a 48% HCA potassium salt and to remain safely on the high side in practice. For the sake of comparison, a commercial KCaHCA salt (60% HCA) was chosen and delivered at an HCA dosage level of 48 mg per day, which slightly exceeded the lowest dosage of HCA found to be efficacious for inhibition of weight gain in rats in the early pharmaceutical trials (45.4 mg/day) using pure trisodium hydroxycitrate and a very low fat diet. The design thus utilized a realistic diet with rough equivalents of the HCA dosages claimed to be effective in both the human and rat models.
The experimental KMgHCA dosings varied considerably from that of the other two salts. […] As a result, the recalculated HCA doses for the experimental compound were a low dose (KMgHCA L) of 14 mg, an intermediate dose (KMgHCA M) of 28 mg and a high dose (KMgHCA H) of 84 mg per day. The difficulty in calculating the HCA content in this case is not unique inasmuch as there is as of yet no universally accepted method for calculating the HCA content of the various salts. Again, preparations yielded the equivalent of 48 mg HCA per day from KCaHCA and 38.4 mg HCA per day from KHCA.
Systolic Blood Pressure (SBP): SBP was estimated by tail plethysmography in unanesthetized rats after a brief warming period. Readings were taken approximately one minute apart. To be accepted, SBP measurements had to be virtually stable for a minimum of three consecutive readings.
(§2) Statistical Analyses: Results are presented as mean±SEM. Many statistics were performed by one-way analysis of variance (ANOVA). SBP and BW were examined by two-way analyses of variance (one factor being dietary group and the second factor being time of examination). Where a significant effect of diet was detected by ANOVA (p<0.05), the Dunnett t test was used to establish which differences between means reached statistical significance (p<0.05). If a Student's t test was employed, this is noted.

The subject of the next series is C-reactive protein. Briefly: serum C-reactive protein, rats on 30% fat / simple sugar diet. The note with it: salt 76 mg/day; for Δ OD units after 4 wks: serum CRP, 1 unit equals 50 picograms/mL. The series is classed as in vivo. On the set-up: key to CRP Modulation: ** = significant. The source says: (§3) To test the properties of HCA in various forms under conditions similar to those found in human clinical trials, the inventor arranged for rats to be fed a diet in which 30% of the calories were obtained from fat under standard conditions, with a further approximately 20% of the calories being supplied as simple sugars. Such a dietary combination of fat and simple sugars is noted as promoting a variety of metabolic imbalances and dysfunctions. The rats were intubated twice daily with one of five HCA salts or placebo. On weekends, the HCA was added to the food at an approprate dosage. The amount of HCA in each arm of 8 animals was based on the minimum dosage which had been found effective in the form of the pure trisodium salt of HCA in tests by Hoffmann-La Roche in animals ingesting a 70% glucose diet, i.e., 0.33 mmoles/kg body weight HCA given twice per day. The HCA salts used were these: KCaHCA=a mixed potassium and calcium or double metal HCA salt commercially marketed as being entirely water soluble and of relatively high purity; KHCA=a relatively clean commercial potassium salt of HCA with a good mineral ligand attachment supplying 4467 mg potassium/100 grams of material; KMgHCA=three different dosage levels of an experimental potassium and magnesium salt with special characteristics, but suspected of being relatively unstable when exposed to stomach acid. The KCaHCA and KHCA salts were 60% HCA delivered at the rate of approximately 76 mg/day. The KMgHCA salts were delivered at the rate of 76 mg/day (r), 38 mg/day (l) and 228 mg/day (h), but due to initial miscalculations of the water of crystallization, this salt was only 45% HCA rather than 60%. The proper dosage for the KMgHCA(r) should have been 100 mg/day; the half dose (I) should have been 50 mg/day, and the triple dose (h) should have been 300 mg/day to match the commercial salts.
Tests were performed for C-reactive protein. Data was obtained for the animals at start and then at week 4 based on serum. Optical Density (OD) readings in the test kit used were 1 unit equals 50 picograms/mL. The delta changes over the 4 weeks for each arm vs control are shown.

The next series has as its system insulin. Briefly: circulating insulin concentrations. The class given is in vivo, Sprague-Dawley Rats.
Description: as §1, §2

Series [2] deals with systolic blood pressure. Put plainly: earlier study of SBP not described here. The series is classed as in vivo. Conditions: 120 mg HCA per day.
Series [3] in a line: body weight in the C-reactive protein study. The class given is in vivo, rats. The note with it: by week 6; salt 76 mg/day.
Description: as §3, with “The KCaHCA and KHCA salts were 60% HCA delivered at the rate of approximately 76 mg/day. The KMgHCA salts were delivered at the rate of 76 mg/day (r), 38 mg/day (l) and 228 mg/day (h), but due to initial miscalculations of the water of crystallization, this salt was only 45% HCA rather than 60%. The proper dosage for the KMgHCA(r) should have been 100 mg/day; the half dose (I) should have been 50 mg/day, and the triple dose (h) should have been 300 mg/day to match the commercial salts.” left out

A further series relates to ACE system. Briefly: response of SBP to losartan challenge. The series is classed as in vivo, Spontaneously hypertensive rats (SHR). The note with it: at 6 hours; control SHR without HCA. The text has this: Many factors can positively influence blood pressure, e.g., diuretics, antioxidants, regulators of sympathetic/parasympathetic tone, compounds that improve insulin sensitivity and so forth. Therefore, losartan, an angiotensin-2 receptor blocker, was utilized to discover whether the ACE system was involved in the results discussed in Example 1.
Spontaneously hypertensive rats (SHR) were placed on a diet composed of regular rat chow (60% w/w) and table sugar (40% w/w). This diet reliably elevates blood pressure in this animal model. One group received 100 mg HCA per day in the form of a new potassium-magnesium hydroxycitrate (different from that used in Example 1) via an added 5 g HCA per kg of food mix. Systolic blood pressure and body weight were tested as in Example 1 on a weekly basis.
When losartan was injected, the SBP of both groups decreased. At 6 hours, the SBP were essentially the same. […] Thus, HCA appears to decrease angiotensin-2 in rats and to lower elevated SBP. Although insulin regulation likely is a factor in the blood pressure modulating effect of HCA, this evidence argues that inhibition of ACE is also important. […]

Series [4] can be described thus: pilot open clinical weight loss trial with extremely obese patients. The class given is in vivo, human. The text has this: A multi-week pilot open clinical weight loss trial with extremely obese patients was planned to gauge the effects of a pouch delivery form of a potassium salt of (−)-hydroxycitrate under the normal circumstances faced in clinical practice with this patient population. Fourteen patients were enrolled, three of whom were diabetics on medications and several others who were suspected of suffering from insulin resistance. The patients ingested 3-4 grams of HCA per day in two divided doses. Aside from being informed that they must eat a carbohydrate-containing meal within one hour of taking the HCA and that they should avoid eating late in the day, they were not instructed to follow any special diet or exercise plan outside their normal habits and no caloric restriction was imposed. This particular form of potassium (−)-hydroxycitrate delivery typically was mixed into water or juice and consumed at mid-morning and mid-afternoon. The delivery was a water-soluble immediate release form. […] A number of patients continued on the program for 6 weeks. However, comparative data was good for only 3 weeks because two of the diagnosed diabetics experienced hypoglycemic reactions. Several other patients experienced good appetite suppression, yet also complained off episodic tiredness at the beginning of the program, a sign of low blood sugar. Two patients subsequently were placed on phentermine. […] The average weight loss over the 3 week period for these patients was approximately 3 pounds per person per week. […] At therapeutically effective dosages, HCA probably should be used with diabetic populations only under a physician's care.

For series [5] the following is noted: rats; diet of 70% glucose and 1% fat; cited from earlier work.

For `O=C([O-])CC(O)(C(=O)[O-])C(O)C(=O)[O-].[Ca+2].[K+]` (stereo not drawn) [KCaHCA, potassium-calcium hydroxycitrate], in the series on systolic blood pressure [1] (48 mg HCA per day), the “SBP compared to control” value is given as “significant decreases in SBP compared to control”. Besides, the “change in CRP compared with control, significance” value with C-reactive protein (4 wks) was “failed to yield significant results”. For the same compound, the “Δ OD units after 4 wks” value with C-reactive protein is on record as 56 OD units. For the same compound, the “trend of circulating insulin” value in the series on insulin (48 mg HCA per day) was “did not show a trend toward lower circulating insulin”. Besides, the SBP result in the series with systolic blood pressure [2] was “decrease in SBP”. The “body weight, trend difference from control” value in series [3] is on record as “greatest trend differences”.
Take `O=C([O-])CC(O)(C(=O)[O-])C(O)C(=O)[O-].[K+].[K+].[K+]` (stereo not drawn) [KHCA, potassium hydroxycitrate]: the “SBP compared to control” value with systolic blood pressure [1] (38.4 mg HCA per day) is on record as “significant decreases in SBP compared to control”. The “CRP Modulation” value with C-reactive protein (4 wks) was “**”. For the same compound, the “Δ OD units after 4 wks” value in the series with C-reactive protein is −155 OD units. In addition, the “insulin, control versus arm alone, Student's t test” value with insulin (38.4 mg HCA per day) is reported as “showed significance”. The “average insulin concentrations vs control” value with insulin (38.4 mg HCA per day, not significant using ANOVA) is “lower”. Further, in series [3], the “body weight, trend difference from control” value was “greatest trend differences”.
As to `CCCCc1nc(Cl)c(CO)n1Cc1ccc(-c2ccccc2-c2nn[nH]n2)cc1` [losartan, reference compound], the “decrease in SBP after losartan injection” value in the series on ACE system is listed as −50±6.1.
On to `O=C([O-])CC(O)(C(=O)[O-])C(O)C(=O)[O-].[K+].[K+].[K+]` (stereo not drawn) [potassium (−)-hydroxycitrate], for which the average weight loss result in series [4] (3-4 grams of HCA per day in two divided doses, over the 3 week period) is recorded as “approximately 3 pounds per person per week”. The tolerability entry in series [4] (apart from inconvenience and poor taste) is recorded as “no other issues of tolerability”. Further, the hypoglycemic effect result in series [4] (immediate release format, diabetics, 3-4 grams of HCA per day) is “strong hypoglycemic effect in diabetics”. In series [4] (one patient, over 10 weeks), this compound returned a weight loss of 32 pounds.
`O=C([O-])CC(O)(C(=O)[O-])C(O)C(=O)[O-].[Na+].[Na+].[Na+]` (stereo not drawn) [trisodium hydroxycitrate]: in series [5], the “lowest dose shown to be efficacious in reducing weight gain” value is listed as 0.33 mmol/kg twice a day.

(Values after patent US20060025483A1, “(-)-Hydroxycitric acid for protection against soft tissue and arterial calcification” (priority 2004, published 2006).)
